In US11130769B2 (Prelude Therapeutics Incorporated, priority 2018, dated 2021):
Read-outs that look alike come from different tables or passages of the source.

Experiments:
MCL-1 = MCL-1 (Homo sapiens (Human), UniProt Q07820); experiment: Cell free Mcl-1:Bim affinity assay (fluorescence polarization competition); format: binding; details: 15 nM MCL-1, 5 nM FITC-Bim, 1 hour at room temperature, read-out: BIM_Ki
Method in brief: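 Compounds competed with FITC-labelled Bim peptide (5 nM) for MCL-1 (15 nM) in HEPES/NaCl buffer with 1% DMSO, 1 h at room temperature. Fluorescence polarization (535 nm emission) gave % inhibition versus DMSO and positive controls; IC50 from 10-point curves, converted to Ki by the Nikolovska-Coleska equation.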

H929 cells = experiment: Cell viability assay (H929 10 FBS); format: cell-based; details: Homo sapiens, NCI-H929, 24 hours, read-out: H929_10FBS IC50
Method in brief: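 H929 cells, 4000/well, in RPMI 1640 with 10% FBS, sodium pyruvate, HEPES and glucose were exposed to compound 24 h at 37 °C. Viability read as luminescence after 30-60 min at RT with CellTiter-Glo or ATPlite 1 Step.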

MCL-1, sequence (Q07820 whole entry): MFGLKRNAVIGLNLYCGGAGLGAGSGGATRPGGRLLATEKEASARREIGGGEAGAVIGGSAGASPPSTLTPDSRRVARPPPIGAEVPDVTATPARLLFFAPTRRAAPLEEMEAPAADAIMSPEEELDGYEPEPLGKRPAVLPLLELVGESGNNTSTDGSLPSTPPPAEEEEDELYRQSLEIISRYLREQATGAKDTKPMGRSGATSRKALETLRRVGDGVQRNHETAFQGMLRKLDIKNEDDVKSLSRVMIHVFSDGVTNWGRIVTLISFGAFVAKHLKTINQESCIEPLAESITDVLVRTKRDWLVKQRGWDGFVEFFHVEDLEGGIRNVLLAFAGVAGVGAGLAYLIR

Row | SMILES | Ki (MCL-1; class symbols) [nM] | IC50 (H929 cells) [nM] | Ki (MCL-1; numeric values) [nM]
1 | COCCN1CCCN(CCO[C@H]2/C=C/CN(C)C(C)(C)C(=O)NS(=O)(=O)c3ccc4c(c3)N(C[C@@H]3CC[C@H]32)C[C@@]2(CCCc3cc(Cl)ccc32)CO4)CC1 [Example 277, (3R,6R,7S,8E,22S)-6′-Chloro-7-[2-[4-(2-methoxyethyl)-1,4-diazepan-1-yl]ethoxy]-11,12,12-trimethyl-15,15-dioxo-spiro[20-oxa-15-thia-1,11,14-triazatetracyclo[14.7.2.03,6.019,24]pentacosa-8,16,18,24-tetraene-22,1′-tetralin]-13-one] | 1 to 100 | > 1000 | 
2 | CNC(=O)O[C@H]1/C=C/COC(C)(C)C(=O)NS(=O)(=O)c2ccc3c(c2)N(C[C@@H]2CC[C@H]21)C[C@@]1(CCCc2cc(Cl)ccc21)CO3 [Example 50, [(3R,6R,7S,8E,22S)-6′-Chloro-12,12-dimethyl-13,15,15-trioxo-spiro[11,20-dioxa-15-thia-1,14-diazatetracyclo[14.7.2.03,6.019,24]pentacosa-8,16,18,24-tetraene-22,1′-tetralin]-7-yl] N-methylcarbamate] | < 1 | < 500 | 
3 | CC1(C)OC/C=C/[C@H](OCCN2CCCCC2)[C@@H]2CC[C@H]2CN2C[C@@]3(CCCc4cc(Cl)ccc43)COc3ccc(cc32)S(=O)(=O)NC1=O [Example 263, (3R,6R,7S,8E,22S)-6′-Chloro-12,12-dimethyl-15,15-dioxo-7-[2-(1-piperidyl)ethoxy]spiro[11,20-dioxa-15-thia-1,14-diazatetracyclo[14.7.2.03,6.019,24]pentacosa-8,16,18,24-tetraene-22,1′-tetralin]-13-one] | < 1 | < 500 | 
4 | CC(=O)O[C@H]1/C=C/CO[C@@H](C)C(=O)NS(=O)(=O)c2ccc3c(c2)N(C[C@@H]2CC[C@H]21)C[C@@]1(CCCc2cc(Cl)ccc21)CO3 [Example 113, [(3R,6R,7S,8E,12S,22S)-6′-Chloro-12-methyl-13,15,15-trioxo-spiro[11,20-dioxa-15-thia-1,14-diazatetracyclo[14.7.2.03,6.019,24]pentacosa-8,16,18,24-tetraene-22,1′-tetralin]-7-yl] acetate] | < 1 | < 1000 | 
5 | COC1CN(C(=O)O[C@H]2/C=C/CN(C)C(C)(C)C(=O)NS(=O)(=O)c3ccc4c(c3)N(C[C@@H]3CC[C@H]32)C[C@@]2(CCCc3cc(Cl)ccc32)CO4)C1 [Example 217, [(3R,6R,7S,8E,22S)-6′-Chloro-11,12,12-trimethyl-13,15,15-trioxo-spiro[20-oxa-15-thia-1,11,14-triazatetracyclo[14.7.2.03,6.019,24]pentacosa-8,16,18,24-tetraene-22,1′-tetralin]-7-yl] 3-methoxyazetidine-1-carboxylate] | < 1 | < 500 | 
6 | CO[C@H]1/C=C/CC[C@H](C)C(=O)NS(=O)(=O)c2ccc3c(c2)N(C[C@@H]2CC[C@H]21)C[C@@]1(CCCc2cc(Cl)ccc21)CO3 [Example 85, (3R,6R,7S,8E,12S,22S)-6′-Chloro-7-methoxy-12-methyl-15,15-dioxo-spiro[20-oxa-15-thia-1,14-diazatetracyclo[14.7.2.03,6.019,24]pentacosa-8,16(25),17,19(24)-tetraene-22,1′-tetralin]-13-one] | 1 to 100 | > 1000 | 
7 | O=C1Cn2ccc(n2)CC(=O)N2CCC(C2)CN2C[C@@]3(CCCc4cc(Cl)ccc43)COc3ccc(cc32)S(=O)(=O)N1 (stereo partly drawn) [Example 296, (23S)-6′-Chloro-16,16-dioxo-spiro[21-oxa-16-thia-1,6,12,15,27-pentazapentacyclo[15.7.2.13,6.19,12.020,25]octacosa-9(27),10,17,19,25-pentaene-23,1′-tetralin]-7,14-dione] | 1 to 100 | < 500 | 
8 | CC1(C)OC/C=C/[C@H](OC(=O)N2CCN(c3ccccn3)CC2)[C@@H]2CC[C@H]2CN2C[C@@]3(CCCc4cc(Cl)ccc43)COc3ccc(cc32)S(=O)(=O)NC1=O [Example 177, [(3R,6R,7S,8E,22S)-6′-Chloro-12,12-dimethyl-13,15,15-trioxo-spiro[11,20-dioxa-15-thia-1,14-diazatetracyclo[14.7.2.03,6.019,24]pentacosa-8,16,18,24-tetraene-22,1′-tetralin]-7-yl] 4-(2-pyridyl)piperazine-1-carboxylate] | 1 to 100 | < 500 | 
9 | O=C(N[C@H]1CCOC1)O[C@H]1/C=C/COC2(CCC2)C(=O)NS(=O)(=O)c2ccc3c(c2)N(C[C@@H]2CC[C@H]21)C[C@@]1(CCCc2cc(Cl)ccc21)CO3 [Example 237, [(3R,6R,7S,8E,22S)-6′-Chloro-12,12-(1,3-propylene)-13,15,15-trioxo-spiro[11,20-dioxa-15-thia-1,14-diazatetracyclo[14.7.2.03,6.019,24]pentacosa-8,16(25),17,19(24)-tetraene-22,1′-tetralin]-7-yl] N-[(3S)-tetrahydrofuran-3-yl]carbamate] | < 1 | < 500 | 
10 | CC1(C)OC/C=C/[C@H](OC(=O)N2CC3CCC(C2)O3)[C@@H]2CC[C@H]2CN2C[C@@]3(CCCc4cc(Cl)ccc43)COc3ccc(cc32)S(=O)(=O)NC1=O [Example 170, [(3R,6R,7S,8E,22S)-6′-Chloro-12,12-dimethyl-13,15,15-trioxo-spiro[11,20-dioxa-15-thia-1,14-diazatetracyclo[14.7.2.03,6.019,24]pentacosa-8,16,18,24-tetraene-22,1′-tetralin]-7-yl] 8-oxa-3-azabicyclo[3.2.1]octane-3-carboxylate] | < 1 | < 1000 | 
11 | [2H]C([2H])([2H])N(C(=O)O[C@H]1/C=C/COC(C)(C)C(=O)NS(=O)(=O)c2ccc3c(c2)N(C[C@@H]2CC[C@H]21)C[C@@]1(CCCc2cc(Cl)ccc21)CO3)C([2H])([2H])[2H] [Example 47, [(3R,6R,7S,8E,22S)-6′-Chloro-12,12-dimethyl-13,15,15-trioxo-spiro[11,20-dioxa-thia-1,14-diazatetracyclo[14.7.2.03,6.019,24]pentacosa-8,16,18,24-tetraene-22,1′-tetralin]-7-yl] N,N-bis(trideuteriomethyl)carbamate] | < 1 | < 500 | 
12 | Cc1ccc(CC(=O)NS(=O)(=O)c2ccc3c(c2)N(CC2CCC2)C[C@@]2(CCCc4cc(Cl)ccc42)CO3)cn1 [Example 17, 2-(6-Methyl-3-pyridyl)-N-[(3S)-6′-chloro-5-(cyclobutylmethyl)spiro[2,4-dihydro-1,5-benzoxazepine-3,1′-tetralin]-7-yl]sulfonyl-acetamide] |  | > 1000 | 7.4
13 | CN(C(=O)O[C@H]1/C=C/COC(C)(C)C(=O)NS(=O)(=O)c2ccc3c(c2)N(C[C@@H]2CC[C@H]21)C[C@]1(CO3)OCCc2cc(Cl)ccc21)C1COC1 [Example 298, [(3R,6R,7S,8E,22R)-6′-Chloro-12,12-dimethyl-13,15,15-trioxo-spiro[11,20-dioxa-15-thia-1,14-diazatetracyclo[14.7.2.03,6.019,24]pentacosa-8,16,18,24-tetraene-22,1′-isochromane]-7-yl] N-methyl-N-(oxetan-3-yl)carbamate] | < 1 | < 1000 | 
14 | CC1(C)OC/C=C/[C@H](OCC(=O)N[C@H]2CCOC2)[C@@H]2CC[C@H]2CN2C[C@@]3(CCCc4cc(Cl)ccc43)COc3ccc(cc32)S(=O)(=O)NC1=O [Example 285, 2-[(3R,6R,7S,8E,22S)-6′-Chloro-12,12-dimethyl-13,15,15-trioxo-spiro[11,20-dioxa-15λ6-thia-1,14-diazatetracyclo[14.7.2.03,6.019,24]pentacosa-8,16,18,24-tetraene-22,1′-tetralin]-7-yl]oxy-N-[(3S)-tetrahydrofuran-3-yl]acetamide] | < 1 | < 500 | 
15 | CC(=O)NS(=O)(=O)c1ccc2c(c1)N(CC1C[C@@H](C)O[C@@H](C)C1)CC1(CCCc3cc(Cl)ccc31)CO2 (mixture of isomers) [Example 8, N-[6′-Chloro-5-[[rac-(2S,6R)-2,6-dimethyltetrahydropyran-4-yl]methyl]spiro[2,4-dihydro-1,5-benzoxazepine-3,1′-tetralin]-7-yl]sulfonylacetamide] |  | > 1000 | 424
16 | CCN1C/C=C/[C@H](OC(=O)N2CCC(OC)CC2)[C@@H]2CC[C@H]2CN2C[C@@]3(CCCc4cc(Cl)ccc43)COc3ccc(cc32)S(=O)(=O)NC(=O)C1(C)C [Example 222, [(3R,6R,7S,8E,22S)-6′-Chloro-11-ethyl-12,12-dimethyl-13,15,15-trioxo-spiro[20-oxa-15-thia-1,11,14-triazatetracyclo[14.7.2.03,6.019,24]pentacosa-8,16,18,24-tetraene-22,1′-tetralin]-7-yl] 4-methoxypiperidine-1-carboxylate] | < 1 | < 500 | 
17 | CN(C)CCNC(=O)O[C@H]1/C=C/COC(C)(C)C(=O)NS(=O)(=O)c2ccc3c(c2)N(C[C@@H]2CC[C@H]21)C[C@@]1(CCCc2cc(Cl)ccc21)CO3 [Example 155, [(3R,6R,7S,8E,22S)-6′-Chloro-12,12-dimethyl-13,15,15-trioxo-spiro[11,20-dioxa-15-thia-1,14-diazatetracyclo[14.7.2.03,6.019,24]pentacosa-8,16,18,24-tetraene-22,1′-tetralin]-7-yl] N-[2-(dimethylamino)ethyl]carbamate] | < 1 | < 500 | 
18 | [2H]C([2H])([2H])N1C/C=C/[C@H](OC(=O)N(C)C)[C@@H]2CC[C@H]2CN2C[C@@]3(CCCc4cc(Cl)ccc43)COc3ccc(cc32)S(=O)(=O)NC(=O)C1(C)C [Example 45, [(3R,6R,7S,8E,22S)-6′-Chloro-12,12-dimethyl-13,15,15-trioxo-11-(trideuteriomethyl)spiro[20-oxa-15-thia-1,11,14-triazatetracyclo[14.7.2.03,6.019,24]pentacosa-8,16,18,24-tetraene-22,1′-tetralin]-7-yl] N,N-dimethylcarbamate] | < 1 | < 500 | 
